Each structure is given as a SMILES string.

For this assay, the target named is T1, His tagged recombinant human tissue transglutaminase (His6-rh-TG2) (Homo sapiens, UniProt P21980).
T1 construct: purchased Zedira T002
T1 sequence (P21980 1-687): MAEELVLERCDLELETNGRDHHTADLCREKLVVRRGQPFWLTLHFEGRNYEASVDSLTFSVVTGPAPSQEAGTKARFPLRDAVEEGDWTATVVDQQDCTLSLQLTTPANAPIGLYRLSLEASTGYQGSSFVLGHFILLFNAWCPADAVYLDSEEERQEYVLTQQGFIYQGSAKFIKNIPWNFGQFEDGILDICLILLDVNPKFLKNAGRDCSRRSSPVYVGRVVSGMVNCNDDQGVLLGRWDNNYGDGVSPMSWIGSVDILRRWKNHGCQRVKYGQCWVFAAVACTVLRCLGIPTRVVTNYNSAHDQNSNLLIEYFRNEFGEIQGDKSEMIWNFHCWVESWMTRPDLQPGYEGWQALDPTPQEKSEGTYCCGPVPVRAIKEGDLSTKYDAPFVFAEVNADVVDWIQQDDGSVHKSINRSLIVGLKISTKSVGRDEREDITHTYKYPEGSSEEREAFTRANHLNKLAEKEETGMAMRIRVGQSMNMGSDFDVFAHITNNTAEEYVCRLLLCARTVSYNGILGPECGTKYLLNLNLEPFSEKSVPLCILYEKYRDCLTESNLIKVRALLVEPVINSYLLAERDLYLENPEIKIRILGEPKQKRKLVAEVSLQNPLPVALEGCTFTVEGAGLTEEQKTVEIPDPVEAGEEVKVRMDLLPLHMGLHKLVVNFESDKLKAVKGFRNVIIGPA
Put plainly: Inactivation of human tissue transglutaminase, fluorescence assay with Abz-APE(CAD-DNP)QEA-OH. It counts as biochemical. The note with it: substrate Abz-APE(CAD-DNP)QEA-OH, 37° C., pH=7.5. How it is done:
General Method for Inactivation of Human Tissue Transglutaminase
250 μg lyophilized His tagged recombinant human tissue transglutaminase (His6-rh-TG2, Zedira product T002) are reconstituted by adding 150 μl water (resulting buffer 50 mM NaH2PO4, 150 mM NaCl, pH=8.0).
A 10 mM inhibitor stock solution in DMSO is prepared and is diluted with buffer (50 mM Tris-HCl, 10 mM CaCl2, 5 mM DTT, pH=7.5) each to the twentyfold of the concentration desired in the preparation (but at least 1/50 dilution resulting in a 2% DMSO concentration).
900 μl of an assay-solution consisting of 55.56 mM Tris, 11.11 mM CaCl2, 0.11% PEG8000, 5.56 mM DTT, 5.56 mM glycine methyl ester and 50 μM Abz-APE(CAD-DNP)QEA-OH, (Zedira product A102; patent No.: EP 1781807B1), pH=7.5 are added to a cuvette and heated in a measuring cell of a spectrophotometer to 37° C. 50 μl of the particular inhibitor solution are added to this solution (resulting in a concentration of less than 0.2% DMSO in the mixture).
7 μl of the transglutaminase solution reconstituted above are diluted with 51 μl buffer (50 mM Tris, 100 mM NaCl, 5 mM DTT, pH=7.5). 50 μl of this enzyme solution (10 μg His6-rhTG2) are added to the assay-solution containing the particular inhibitor concentration. It is incubated 5 min at 37° C. before measuring starts (λexc=313 nm and λem=418 nm, t=15 to 30 min).
The evaluation of the resulting enzyme activity is done using the slope of the straight line obtained by the increase in fluorescence.
To determine the non-inhibited enzyme activity, DMSO instead of inhibitor stock solution is used. IC50 values are determined by plotting the resulting enzyme activity against the logarithm of the inhibitor concentration. IC50 is defined as the concentration of inhibitor resulting in 50% of enzyme activity.
The IC50 is the concentration that inhibits the measured activity by half. Take `CCOC(=O)/C=C/CC[C@H](NC(C)=O)C(=O)Nc1cccn(CC(=O)NCCN(CC)CC)c1=O` [A25, (S,E)-Ethyl 6-acetamido-7-(1-(2-(2-(diethylamino)ethylamino)-2-oxoethyl)-2-oxo-1,2-dihydropyridin-3-ylamino)-7-oxohept-2-enoate]: the IC50 was 4.8 µM.
As for `CCOC(=O)/C=C/CC[C@H](NC(=O)CCC(=O)O)C(=O)Nc1cccn(CC(=O)NCCN(CC)CC)c1=O` [A26, (S,E)-4-(1-(1-(2-(2-(Diethylamino)ethylamino)-2-oxoethyl)-2-oxo-1,2-dihydropyridin-3-ylamino)-7-ethoxy-1,7-dioxohept-5-en-2-ylamino)-4-oxobutanoic acid], the half-maximal inhibitory concentration (IC50) stood at 5.4 µM.
The figure for `CCOC(=O)/C=C/CC[C@H](NC(C)=O)C(=O)Nc1cccn(CC(=O)NCCN(C)C)c1=O` [A27, (S,E)-Ethyl 6-acetamido-7-(1-(2-(2-(dimethylamino)ethylamino)-2-oxoethyl)-2-oxo-1,2-dihydropyridin-3-ylamino)-7-oxohept-2-enoate] is 5.2 µM; for `CCOC(=O)/C=C/CC[C@H](NC(C)=O)C(=O)Nc1cccn(CC(=O)N[C@@H](CC(C)C)C(=O)OC)c1=O` [A31, (S,E)-Ethyl 6-acetamido-7-(1-(2-((S)-1-methoxy-4-methyl-1-oxopentan-2-ylamino)-2-oxoethyl)-2-oxo-1,2-dihydropyridin-3-ylamino)-7-oxohept-2-enoate] it is 0.124 µM.
The figure for `CCOC(=O)/C=C/CC[C@H](NC(=O)CCC(=O)O)C(=O)Nc1cccn(CC(=O)N[C@@H](CC(C)C)C(=O)OC)c1=O` [A32, 4-((S,E)-7-Ethoxy-1-(1-(2-((S)-1-methoxy-4-methyl-1-oxopentan-2-ylamino)-2-oxoethyl)-2-oxo-1,2-dihydropyridin-3-ylamino)-1,7-dioxohept-5-en-2-ylamino)-4-oxobutanoic acid] is 0.194 µM; for `CCOC(=O)/C=C/CC[C@H](NC(C)=O)C(=O)Nc1cccn(CC(=O)N[C@H](CC(C)C)C(=O)OC)c1=O` [A33, (S,E)-Ethyl 6-acetamido-7-(1-(2-((R)-1-methoxy-4-methyl-1-oxopentan-2-ylamino)-2-oxoethyl)-2-oxo-1,2-dihydropyridin-3-ylamino)-7-oxohept-2-enoate] it is 0.493 µM; for `CCOC(=O)/C=C/CC[C@H](NC(=O)CCC(=O)O)C(=O)Nc1cccn(CC(=O)N[C@H](CC(C)C)C(=O)OC)c1=O` [A34, 4-((S,E)-7-Ethoxy-1-(1-(2-((R)-1-methoxy-4-methyl-1-oxopentan-2-ylamino)-2-oxoethyl)-2-oxo-1,2-dihydropyridin-3-ylamino)-1,7-dioxohept-5-en-2-ylamino)-4-oxobutanoic acid] it is 0.64 µM.
Regarding `CCOC(=O)/C=C/CC[C@H](NC(=O)CCC(=O)O)C(=O)Nc1cccn(CC(=O)N[C@H](C(=O)OC)[C@H](C)CC)c1=O` [A36, 4-((S,E)-7-Ethoxy-1-(1-(2-((2S,3R)-1-methoxy-3-methyl-1-oxopentan-2-ylamino)-2-oxoethyl)-2-oxo-1,2-dihydropyridin-3-ylamino)-1,7-dioxohept-5-en-2-ylamino)-4-oxobutanoic acid], the IC50 was found to be 0.088 µM.
The figure for `CCOC(=O)/C=C/CC[C@H](NC(=O)CCC(=O)O)C(=O)Nc1cccn(CC(=O)NCc2ccc(C(F)(F)F)cc2)c1=O` [A37, (S,E)-4-(7-Ethoxy-1,7-dioxo-1-(2-oxo-1-(2-oxo-2-(4-(trifluoromethyl)benzylamino)ethyl)-1,2-dihydropyridin-3-ylamino)hept-5-en-2-ylamino)-4-oxobutanoic acid] is 0.34 µM; for `CCOC(=O)/C=C/CC[C@H](NC(=O)CCC(=O)O)C(=O)Nc1cccn(CC(=O)NCCC(C)(C)C)c1=O` [A38, (S,E)-4-(1-(1-(2-(3,3-Dimethylbutylamino)-2-oxoethyl)-2-oxo-1,2-dihydropyridin-3-ylamino)-7-ethoxy-1,7-dioxohept-5-en-2-ylamino)-4-oxobutanoic acid] it is 0.175 µM.
As for `CCOC(=O)/C=C/CC[C@H](NC(C)=O)C(=O)Nc1cccn(CC(=O)NCCC(C)(C)C)c1=O` [A39, (S,E)-Ethyl 6-acetamido-7-(1-(2-(3,3-dimethylbutylamino)-2-oxoethyl)-2-oxo-1,2-dihydropyridin-3-ylamino)-7-oxohept-2-enoate], the IC50 was 0.115 µM.
The figure for `CCOC(=O)/C=C/CC[C@H](NC(C)=O)C(=O)Nc1cccn(CC(=O)N[C@@H](CC(C)(C)C)C(=O)OC)c1=O` [A40, (S,E)-Ethyl 6-acetamido-7-(1-(2-((S)-1-methoxy-4,4-dimethyl-1-oxopentan-2-ylamino)-2-oxoethyl)-2-oxo-1,2-dihydropyridin-3-ylamino)-7-oxohept-2-enoate] is 0.131 µM.
In the case of `CCOC(=O)/C=C/CC[C@H](NC(=O)CCC(=O)O)C(=O)Nc1cccn(CC(=O)N[C@@H](CC(C)(C)C)C(=O)OC)c1=O` [A41, 4-((S,E)-7-Ethoxy-1-(1-(2-((S)-1-methoxy-4,4-dimethyl-1-oxopentan-2-ylamino)-2-oxoethyl)-2-oxo-1,2-dihydropyridin-3-ylamino)-1,7-dioxohept-5-en-2-ylamino)-4-oxobutanoic acid], the IC50 was 0.166 µM.
For the molecule `CCOC(=O)/C=C/CC[C@H](NC(=O)CCC(=O)O)C(=O)Nc1cccn(CC(=O)NCCC(CC)CC)c1=O` [A43, (S,E)-4-(7-Ethoxy-1-(1-(2-(3-ethylpentylamino)-2-oxoethyl)-2-oxo-1,2-dihydropyridin-3-ylamino)-1,7-dioxohept-5-en-2-ylamino)-4-oxobutanoic acid], the IC50 worked out at 0.145 µM.
With `CCOC(=O)/C=C/CC[C@H](NC(=O)CCC(=O)O)C(=O)Nc1cccn(CC(=O)NCc2ccccc2C(F)(F)F)c1=O` [A44, (S,E)-4-(7-Ethoxy-1,7-dioxo-1-(2-oxo-1-(2-oxo-2-(2-(trifluoromethyl)benzylamino)ethyl)-1,2-dihydropyridin-3-ylamino)hept-5-en-2-ylamino)-4-oxobutanoic acid], the IC50 amounted to 0.24 µM.
The figure for `CCOC(=O)/C=C/CC[C@H](NC(=O)CCC(=O)O)C(=O)Nc1cccn(CC(=O)N2CCC(C(F)(F)F)CC2)c1=O` [A45, (S,E)-4-(7-Ethoxy-1,7-dioxo-1-(2-oxo-1-(2-oxo-2-(4-(trifluoromethyl)piperidin-1-yl)ethyl)-1,2-dihydropyridin-3-ylamino)hept-5-en-2-ylamino)-4-oxobutanoic acid] is 1.23 µM; for `CCOC(=O)/C=C/CC[C@H](NC(C)=O)C(=O)Nc1cccn(CC(=O)NCCN2CCCC2)c1=O` [A46, (S,E)-Ethyl 6-acetamido-7-oxo-7-(2-oxo-1-(2-oxo-2-(2-(pyrrolidin-1-yl)ethylamino)ethyl)-1,2-dihydropyridin-3-ylamino)hept-2-enoate] it is 3.3 µM; for `CCOC(=O)/C=C/CC[C@H](NC(=O)CCC(=O)O)C(=O)Nc1cccn(CC(=O)NCCc2cccs2)c1=O` [A47, (S,E)-4-(7-Ethoxy-1,7-dioxo-1-(2-oxo-1-(2-oxo-2-(2-(thiophen-2-yl)ethylamino)ethyl)-1,2-dihydropyridin-3-ylamino)hept-5-en-2-ylamino)-4-oxobutanoic acid] it is 0.48 µM.
`CCOC(=O)/C=C/CC[C@H](NC(C)=O)C(=O)Nc1cccn(CC(=O)NCC2CCN(CC)CC2)c1=O` [A48, (S,E)-Ethyl 6-acetamido-7-(1-(2-((1-ethylpiperidin-4-yl)methylamino)-2-oxoethyl)-2-oxo-1,2-dihydropyridin-3-ylamino)-7-oxohept-2-enoate]: the IC50 is 1.7 µM.

The record behind these values is US9434763B2, “Derivatives of pyridinone as inhibitors for tissue transglutaminase” (ZEDIRA GMBH, priority 2012, dated 2016).
